Reference: patent US5084450A, “Novel steroids” (Roussel Uclaf, priority 1990, dated 1992)

Key:
[1] = target: T1, specific receptor of progesterone (Oryctolagus cuniculus, UniProt P06186); assay: Hormonal receptor method: displacement of tritiated product R from rabbit uterus cytosol (relative binding affinity vs progesterone); conditions: for RBA 2 hours / RBA 24 hours: relative affinity, tritiated product R; for RBA 2 hours: progesterone = 100, incubation at 0° C. for 2 hours; for RBA 24 hours: progesterone = 100, incubation at 0° C. for 24 hours
T1 construct: the uteri were removed and homogenized; from tissue; host or cells: rabbit uterus, cytosol (105,000 g supernatant), estradiol-treated impuberal rabbits
T1 sequence (P06186 1-930): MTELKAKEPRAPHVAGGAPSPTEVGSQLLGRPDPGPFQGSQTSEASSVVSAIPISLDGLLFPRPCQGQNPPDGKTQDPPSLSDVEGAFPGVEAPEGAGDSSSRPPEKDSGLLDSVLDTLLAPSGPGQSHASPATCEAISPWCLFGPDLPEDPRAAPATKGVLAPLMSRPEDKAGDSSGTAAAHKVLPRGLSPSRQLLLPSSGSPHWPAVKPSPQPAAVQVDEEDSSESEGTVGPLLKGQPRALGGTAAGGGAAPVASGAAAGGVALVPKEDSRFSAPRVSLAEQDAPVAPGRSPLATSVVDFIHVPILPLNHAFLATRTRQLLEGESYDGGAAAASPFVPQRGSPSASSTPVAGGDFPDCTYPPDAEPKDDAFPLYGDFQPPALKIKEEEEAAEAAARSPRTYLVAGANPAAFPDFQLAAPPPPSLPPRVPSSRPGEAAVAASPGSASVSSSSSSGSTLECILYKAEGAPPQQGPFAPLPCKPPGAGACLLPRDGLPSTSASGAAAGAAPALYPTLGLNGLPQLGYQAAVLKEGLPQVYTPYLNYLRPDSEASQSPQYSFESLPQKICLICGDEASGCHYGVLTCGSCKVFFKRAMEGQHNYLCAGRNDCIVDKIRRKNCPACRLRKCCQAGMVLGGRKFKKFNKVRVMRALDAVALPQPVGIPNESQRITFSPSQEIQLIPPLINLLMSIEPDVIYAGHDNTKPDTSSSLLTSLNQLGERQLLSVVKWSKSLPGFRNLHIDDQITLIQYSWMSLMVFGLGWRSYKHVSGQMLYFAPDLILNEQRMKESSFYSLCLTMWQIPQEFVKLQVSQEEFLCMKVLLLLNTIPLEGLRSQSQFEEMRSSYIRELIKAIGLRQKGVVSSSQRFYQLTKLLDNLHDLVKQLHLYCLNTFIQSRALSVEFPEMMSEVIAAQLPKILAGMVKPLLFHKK
Procedure: a) The progestomimetic activity of the products of Examples 1 and 2 was studied by the method of hormonal receptors described by RAYNAUD et al in "J. Ster. BIOCHEM" 1975, Vol. 6, 615 to 622 and in "Physiology and Genetics of Reproduction", 1975 part A p. 143 to 160. The technique was as follows: […] of estradiol were administered to impuberal rabbits per-cutaneously. Five days after this treatment, the animals were killed, the uteri were removed and homogenized in a 10 mM tromethamine, 0.25 M saccharose, HCl pH 7.4 buffer. The homogenate was centrifuged at 105,000 g for one hour and the supernatant liquid or cytosol was adjusted to have a dilution of 1/50 (weight/volume). Tubes with the same volume of cytosol were incubated at 0° C. for two hours with a fixed concentration of tritiated 17,21-dimethyl-19-nor- Δ^4,9 -pregandiene-3,20-dione, called hereafter tritiated product R, in the presence or not of an increasing concentration of radio-inert 17,21-dimethyl-19-nor-Δ^4,9 -pregnadiene-3,20-dione called hereafter cold product R, of progesterone or of product under test. After two hours and after 24 hours, the radioactivity of bound tritiated product R was determined by the technique of absorption with cabon-dextran (1.25%-0.625%).
Then the following was traced: the straight line parallel to the axis of the abscesses, of the coordinate [formula]
Bo being the maximum quantity of bound tritiated product R, measured in the incubate containing only tritiated product R, Bmin being the minimum quantity of bound tritiated product R (non-specific), measured in the incubate containing tritiated product R plus a large excess of cold product R (2500 10^-9 M), the curves representing the percentages of bound tritiated product [formula] as a function of the logarithm of the concentrations of added cold product.
The intersections of the straight line I50 and the curves allowed the values CP and CX to be determined. CP: concentration of cold progesterone which inhibited by 50% the fixing of the tritiated product R. CX: concentration of the product under test which inhibited by 50% the fixing of the tritiated product R.
The relative affinity of the product under test or RBA is given by the formula

impuberal rabbits = assay: CLAUBERG test (lacy proliferation of the endometrium); format: in vivo, rabbit
Procedure: b) The progestomimetic activity of the product of Example 2 was determined by the CLAUBERG test. According to this test, groups of three impuberal rabbits were sensitized before-hand by the administration of estradiol sub-cutaneously for five days at a daily dose of 5 micrograms. Two days later, they were treated daily for five days with the medicament under study sub-cutaneously.
The product of Example 2 was used in solution in sesame oil containing 5% benzyl alcohol.

| SMILES | affinity for the specific receptor of progesterone (conclusion in words) [1] | RBA 2 hours [1] | RBA 24 hours [1] | Mac Phail UNITS (impuberal rabbits; 0.3 μg/rabbit/day sub-cutaneously for five days, estradiol-sensitized impuberal rabbits, sesame oil with 5% benzyl alcohol) | Mac Phail UNITS (impuberal rabbits; 1 μg/rabbit/day sub-cutaneously for five days, estradiol-sensitized impuberal rabbits, sesame oil with 5% benzyl alcohol) | Mac Phail UNITS (impuberal rabbits; 3 μg/rabbit/day sub-cutaneously for five days, estradiol-sensitized impuberal rabbits, sesame oil with 5% benzyl alcohol) | progestomimetic activity (conclusion in words) (impuberal rabbits; CLAUBERG test, sub-cutaneous, impuberal rabbits) | Mac Phail UNITS (impuberal rabbits; daily dose of 10 micrograms, sub-cutaneously, impuberal rabbits) |
| --- | --- | --- | --- | --- | --- | --- | --- | --- |
| C[C@]12CCC3=C4CCC(=O)C=C4CC[C@H]3[C@@H]1CC[C@@]21CCCC1=O [Example 2, spiro (cyclopentane-1,17'β -Δ4,9-estradiene)-2,3'-dione] | very strong affinity | 344 | 912 | 0.5 Mac Phail units | 1.8 Mac Phail units | 2.8 Mac Phail units | very strong progestomimetic activity | 2.8 Mac Phail units |
| C[C@]12CC[C@H]3[C@@H](CCC4=CC(=O)CC[C@@H]43)[C@@H]1CC[C@@]21CCCC1=O [Example 1, Spiro (cyclopentane-1,17'β-Δ4'-estrene)-2,3'-dione] | very strong affinity | 312 | 1012 |  |  |  |  |  |
